Measured values taken from patent publication US20260139003A1, “PEPTIDE WITH ACTIVITY OF PROMOTING HAIR GROWTH AND INHIBITING HAIR LOSS AND USE THEREOF” (CAREGEN CO., LTD., priority 2022, published 2026).
Where no end group is shown, it is not given here.

Experiments:
[1] = system: beta-catenin; assay: Activation of beta-catenin in HHFDPCs (nuclear protein Western blot); assay type: cell-based, human; details: 500 nM, 5 μM, and 50 μM, 24 hours, nuclear proteins, FIG. 3
Protocol: The effect of the peptide prepared in Preparation Example 1 above on the activation of beta-catenin in human hair follicle dermal papilla cells (HHFDPCs) was confirmed by Western blot method.
HHFDPCs were seeded in a 6-well cell culture plate at a density of 4×10^5 cells/well and cultured for 24 hours under mesenchymal stem cell complete media conditions. Then, the medium was replaced with serum-free mesenchymal stem cell medium and cultured for additional 24 hours. The cultured cell culture was treated with the peptide prepared in Preparation Example 1 above at 500 nM, 5 μM, and 50 μM, respectively, and treated with 10 ng/mL of rhWnt-3a (recombinant human Wnt-3a protein, R&D systems (MN, USA) to serve as a positive control, and not treated with anything to serve as a negative control (con). The cultures treated with these materials were incubated at 37° C. for additional 24 hours. After washing each culture with PBS, nuclear proteins were isolated using a nuclear protein extraction kit (Thermo scientific, USA), and an equal amount of protein sample was prepared by BCA quantification. The prepared protein samples were subjected to electrophoresis using 10% SDS-PAGE. […] The resultant was washed 3 times for 15 minutes each with 0.1% PBS-T (0.1% Tween-20 in PBS), treated with ECL solution (GE Healthcare, USA), and detected with a film.

[2] = system: Keratin 19; assay: Keratin 19 gene expression in HHORSCs (RT-PCR); assay type: cell-based, human; details: 500 nM, 5 μM, and 50 μM, 24 hours, FIG. 6
Protocol: (§1) The effect of the peptide prepared in Preparation Example 1 above on the activation of human hair outer root sheath cells (HHORSCs) was confirmed by measuring the gene expression of cytokeratin proteins.
(§2) HHORSCs were seeded in a 96-well cell culture plate at a density of 4×10^3 cells/well and cultured for 24 hours under mesenchymal stem cell complete media conditions. Then, the medium was replaced with serum free mesenchymal stem cell medium and cultured for additional 24 hours. The cultured cell culture was treated with 500 nM, 5 μM, and 50 μM of the peptide prepared in Preparation Example 1 above, respectively, and treated with 100 nM of epidermal growth factor (EGF) as a positive control, and negative when not treated with anything to serve as a negative control (con), and these cultures were cultured at 37° C. for 24 hours. After washing each culture with PBS, RNA was isolated by treatment with 300 μL of eaay blue (Intron, South Korea). The isolated RNA was quantified using Nano drop, and then subjected to cDNA synthesis using a cDNA synthesis kit (Enzynomics, South Korea). Then, a PCR reaction was performed using the primers shown in Table 3 below and a PCR premix (Enzynomics, South Korea). The PCR reaction product was electrophoresed on a 1.5% agarose gel, and the bands were detected using the Bio-Rad Gel Image System.

[3] = system: DKK-1; assay: Expression of hair loss protein DKK-1 induced by DHT in HHFDPCs (Western blot); assay type: cell-based, human; details: 500 nM, 5 μM, and 50 μM, DHT 100 nM simultaneously, 24 hours, FIG. 5
Description: It is known that in hair follicles, dihydrotestosterone (DHT) promotes the expression of Dickkopf-1 (DKK-1), and DKK-1 induced by DHT inhibits the proliferation of keratinocytes in hair follicles and causes their apoptosis, thereby promoting hair loss (J of Invest Dermatolo. 2008, February, 128(2), pp. 262-269). The effect of the peptide prepared in Preparation Example 1 above on the expression level of the hair loss-inducing protein DKK-1 in human hair follicle dermal papilla cells (HHFDPCs) was confirmed by Western blot method.
HHFDPCs were seeded in a 6-well cell culture plate at a density of 4×10^5 cells/well and cultured for 24 hours under mesenchymal stem cell complete media conditions. Then, the medium was replaced with serum-free mesenchymal stem cell medium and cultured for additional 24 hours. The cultured cell culture was treated with 500 nM, 5 μM, and 50 μM of the peptide prepared in Preparation Example 1 above, respectively. treated with 5 μM of finasteride to serve as a positive control, and not treated with anything to serve as a negative control group (con). […] Equal amounts of protein samples were prepared by BCA quantification of cell lysates. […] The resultant was washed 3 times for 15 minutes each with 0.1% PBS-T (0.1% Tween-20 in PBS), treated with ECL solution (GE Healthcare, USA), and detected with a film.

[4] = system: HOXC13; assay: HOXC13 expression in HHGMCs (RT-PCR); assay type: cell-based, human; details: 500 nM, 5 μM, and 50 μM, 24 hours, FIG. 7
Protocol: (§3) The effect of the peptide prepared in Preparation Example 1 above on the activation of human hair germinal matrix cells (HHGMCs) was confirmed by measuring the expression of MSX2, Homeobox C13 (HOXC13), and Forkhead Box N1 (FOXN1), which are transcription factors related to cell activation.
as §2, with “HHGMCs” for “HHORSCs”, “6-well” for “96-well”, “4×10^5” for “4×10^3”, “Then, a PCR reaction was performed using the primers shown in Table 3 below and a PCR premix (Enzynomics, South Korea).” left out

[5] = system: Ha3-II; assay: Ha3-II gene expression in HHORSCs (RT-PCR); assay type: cell-based, human; details: 500 nM, 5 μM, and 50 μM, 24 hours, FIG. 6
Protocol: as §1, §2

[6] = system: c-Myc; assay: c-Myc gene expression in HHFDPCs (RT-PCR); assay type: cell-based, human; details: 500 nM, 5 μM, and 50 μM, 24 hours, FIG. 4
Protocol: (§4) The effect of the peptide prepared in Preparation Example 1 above on the expression levels of lymphoid enhancer-binding factor 1 (LEF-1), c-Myc, and Cyclin D1, which are downstream genes of beta-catenin, in human hair follicle dermal papilla cells (HHFDPCs) was determined by the RT-PCR method.
(§5) HHFDPCs were seeded in a 6-well cell culture plate at a density of 4×10^5 cells/well and cultured for 24 hours under mesenchymal stem cell complete media conditions. Then, the medium was replaced with serum free mesenchymal stem cell medium and cultured for additional 24 hours. The cultured cell culture was treated with the peptide prepared in Preparation Example 1 above at 500 nM, 5 μM, and 50 μM, respectively, and treated with 10 ng/mL of rhWnt-3a (recombinant human Wnt-3a protein, R&D systems (MN, USA) to serve as a positive control, and not treated with anything to serve as a negative control (con), and each was cultured at 37° C. for additional 24 hours. After washing each culture with PBS, RNA was isolated therefrom by treatment with 300 μL of eaay blue (Intron, South Korea). The isolated RNA was quantified using Nano drop, and then subjected to cDNA synthesis using a cDNA synthesis kit (Enzynomics, South Korea). […] The PCR reaction product was electrophoresed on a 1.5% agarose gel, and the bands were detected using the Bio-Rad Gel Image System.

[7] = system: LEF-1; assay: LEF-1 gene expression in HHFDPCs (RT-PCR); assay type: cell-based, human; details: 500 nM, 5 μM, and 50 μM, 24 hours, FIG. 4
Protocol: as §4, §5

[8] = system: Cyclin D1; assay: Cyclin D1 gene expression in HHFDPCs (RT-PCR); assay type: cell-based, human; details: 500 nM, 5 μM, and 50 μM, 24 hours, FIG. 4
Protocol: as §4, §5

[9] = system: Keratin 5; assay: Keratin 5 gene expression in HHORSCs (RT-PCR); assay type: cell-based, human; details: 500 nM, 5 μM, and 50 μM, 24 hours, FIG. 6
Protocol: as §1, §2

[10] = system: Akt; assay: Akt phosphorylation in HHFDPCs (Western blot); assay type: cell-based, human; details: 500 nM, 5 μM, and 50 μM, 24 hours, FIG. 2
Protocol: (§6) The effect of the peptide prepared in Preparation Example 1 above on the activation of proliferation-related signaling molecules in human hair follicle dermal papilla cells (HHFDPCs) was confirmed by Western blot method.
(§7) HHFDPCs were seeded in a 6-well cell culture plate at a density of 4×10^5 cells/well and cultured for 24 hours under mesenchymal stem cell complete media conditions. Then, the medium was replaced with serum-free mesenchymal stem cell medium and cultured for additional 24 hours. The cultured cell culture was treated with the peptide prepared in Preparation Example 1 above at 500 nM, 5 μM, and 50 μM, respectively, 1 μM of Minoxidil (MNX) was treated to serve as a positive control, and not treated with anything to serve as a negative control (con), and the cultures treated with these materials were cultured at 37° C. for additional 24 hours. After washing each culture with PBS, the cells were lysed by treatment with lysis buffer to obtain a cell lysate. Equal amounts of protein samples were prepared by BCA quantification of cell lysates. The prepared protein samples were subjected to electrophoresis using 10% SDS-PAGE. […] The resultant was washed 3 times for 15 minutes each with 0.1% PBS-T (0.1% Tween-20 in PBS), treated with ECL solution (GE Healthcare, USA), and detected with a film.

[11] = system: Keratin 14; assay: Keratin 14 gene expression in HHORSCs (RT-PCR); assay type: cell-based, human; details: 500 nM, 5 μM, and 50 μM, 24 hours, FIG. 6
Protocol: as §1, §2

[12] = system: MSX2; assay: MSX2 expression in HHGMCs (RT-PCR); assay type: cell-based, human; details: 500 nM, 5 μM, and 50 μM, 24 hours, FIG. 7
Protocol: as §3
as §2, with “HHGMCs” for “HHORSCs”, “6-well” for “96-well”, “4×10^5” for “4×10^3”, “Then, a PCR reaction was performed using the primers shown in Table 3 below and a PCR premix (Enzynomics, South Korea).” left out

[13] = system: extracellular-regulated kinase (ERK); assay: ERK phosphorylation in HHFDPCs (Western blot); assay type: cell-based, human; details: 500 nM, 5 μM, and 50 μM, 24 hours, FIG. 2
Protocol: as §6, §7

[14] = system: FOXN1; assay: FOXN1 expression in HHGMCs (RT-PCR); assay type: cell-based, human; details: 500 nM, 5 μM, and 50 μM, 24 hours, FIG. 7
Protocol: as §3
as §2, with “HHGMCs” for “HHORSCs”, “6-well” for “96-well”, “4×10^5” for “4×10^3”, “Then, a PCR reaction was performed using the primers shown in Table 3 below and a PCR premix (Enzynomics, South Korea).” left out

[15] = system: human hair follicle dermal papilla cells (HHFDPCs); assay: Proliferation of HHFDPCs (MTT); assay type: cell-based; details: 500 nM, 5 μM, and 50 μM, 72 hours, absorbance 540 nm, FIG. 1
Protocol: The effect of the peptide prepared in Preparation Example 1 above on the proliferation of human hair follicle dermal papilla cells (HHFDPCs) was tested.
HHFDPCs were seeded in a 96-well cell culture plate at a density of 4×10^3 cells/well and cultured for 24 hours under mesenchymal stem cell complete media conditions. Then, the medium was replaced with serum-free mesenchymal stem cell medium and cultured for additional 24 hours. The cultured cell culture was treated with the peptide prepared in Preparation Example 1 above at 500 nM, 5 μM, and 50 μM, respectively, treated with 1 μM VEGF to serve as a positive control, and not treated with anything to serve as a negative control (con), and these cultures were cultured at 37° C. for additional 72 hours. Thereafter, 10 μL of MTT solution (5 mg/mL) was added thereto, and the mixture was incubated in a CO2 incubator at 37° C. for 4 hours, the medium was removed, and 100 μL of DMSO was added thereto and shaken for 10 minutes. Finally, the absorbance was measured at a wavelength of 540 nm using a spectrophotometer (Molecular Devices (SpectraMax iD3, CA, USA)).

RHVLKRR [peptide of Preparation Example 1]
beta-catenin activation and movement to the nucleus [1]: activated and its movement to the nucleus was increased | expression of Keratin 19 [2]: increasing | expression of DKK-1 induced by DHT treatment [3]: reduced in a concentration-dependent manner | expression of HOXC13 [4]: increased | expression of Ha3-II [5]: increasing | gene expression of c-Myc [6]: increased | gene expression of LEF-1 [7]: increased | gene expression of Cyclin D1 [8]: increased | expression of Keratin 5 [9]: increasing | phosphorylation of Akt [10]: increased | expression of Keratin 14 [11]: increasing | expression of MSX2 [12]: increased | phosphorylation of extracellular-regulated kinase (ERK) [13]: increased | expression of FOXN1 [14]: increased | proliferation of HHFDPCs compared to the negative control (con) [15]: promoted the proliferation
